Here are results for 15 substances from patent US20040219217A1, “Conjugates of polysaccharide polymers of natural origin” (priority 2001, published 2004).

Data set [1] in a line: in vitro cleavage of the conjugation in artificial sweat. The data set is classed as physicochemical. The settings on record: 18 h hydrolysis, skin's usual pH, 37° C. On the procedure:
In the following table 2, different chemical conjugations contemplated by the present invention have been tested for in vitro cleavage under conditions simulating the topical application of the polysaccharide polymers of the present invention to the skin. In particular, for evaluating the biodegradability of a given chemical conjugation established between cotton and an active substance, the conjugate is subjected to hydrolysis at the skin's usual pH at 37° C. under mild agitation in the presence of an enzymatic mixture known as “artificial sweat”. After the pre-established time period of contact with the hydrolysis medium, the same was analyzed for the active substances or their fragments contained therein. The examples as listed below were chosen on the following grounds: […]

Another data set concerns Escherichia coli. Nature of the data set: plate culture growth under derivatized cotton gauze. In kind it is cell-based. The settings on record: E. coli, 24 hours at 37° C., vs normal growth conditions. The source says:
(§1) 2. Evaluation of the influence of cotton derivatized with germicides, with anti-bacterial or anti-fungi agents in the development and amount of microorganic flora.
(§2) The influence of suitably derivatized cotton fibre on the development of microorganic flora has been determined “in vitro” on plate growing cultures of various micro-organisms: Candida albicans, Escherichia coli, Staphylococcus aureus isolated and characterized by contaminated organic material.
(§3) To this purpose growth selective mediums are prepared (sabouraud agar for fungi and nutrient agar for bacteria) with which Petri dishes are prepared.
(§4) On the medium surface the microorganism culture is applied by deposition of one ml of a suspension of said microorganism containing 10^9 microorganisms, lightly agitating so as to cover the whole plate surface.
(§5) A cotton gauze obtained from fibre derivatized with the various substances taken into consideration is then applied onto the surface; the whole is then placed in a thermostat at 37° C.
(§6) After 24 hours the gauze is removed and the developed colonies are compared with plates in normal growth conditions.
(§7) The reduction in percentage of the growth in the plates characterized by conjugated gauze is evaluated with respect to normal growth conditions.

A further data set deals with Candida albicans. The description is as above. The data set is classed as cell-based. Conditions: C. albicans, 24 hours at 37° C., vs normal growth conditions.
Excerpt: as §1, §2, §3, §4, §5, §6, §7

A further data set concerns Staphylococcus aureus. The description is as above. The settings on record: S. aureus, 24 hours at 37° C., vs normal growth conditions. The data set is classed as cell-based.
Excerpt: as §1, §2, §3, §4, §5, §6, §7

For another data set, the system named is mite population. Conditions: dust collected after two days, vs underivatized fabrics. As for the experimental part: 8. Performance of anti-mite fabrics.
Cotton fibres conjugated to acaricides (as set out in the chemical experimental part above) were used for obtaining fabrics (woven and non-woven) used in turn for the manufacture of household articles (curtains, carpet floor and the like) placed in living environments. In particular, living environments (flats, apartments and houses) at the countryside at locations particularly exposed to dust and ventilation were chosen. Moreover, the tests were conducted during spring, which is the period with the highest mite contamination risk.
After two days of total exposure of the living environments to the open air, at the point in time zero, the dust was removed through vacuum cleaning and the presence and the status of the mite population contained therein was subjected to microscopic examination. Thereafter, some of the living environments, after appropriate randomization, were equipped with the fabrics according to the invention obtained from fibres conjugated to acaricides, thus making up a first test group. On the other hand, the remaining living environments were equipped with fabrics from customary cotton thereby making up a second test group as a control for the development of the mite population.
After another two days, the dust from both of the test groups was collected and the overall number of mites as well as the number of living mites was established.

The subject of data set [2] is granuloma from cotton pellets. Kind of data set: induction of granuloma from cotton pellets. In kind it is in vivo. The settings on record: rats, subcutaneous cotton pellet 1 g, after fifteen days, vs simple cotton. The source says:
3. Influence of fibre derivatized with anti-inflammatories or with immunostimulating agents on the phlogogenic process.
The experiments have been carried out on rats through the test of induction of granuloma from “cotton pellets”.
According to this test cotton pellets having a pre-established weight (1 g) and shape are introduced into the subcutaneous region of the subaxillary area of the animals using a cannula which can pierce the skin and the sub-skin (the scar is closed again with a suture stitch).
Around the cotton pellet a “granuloma” collagen deposit is formed, whose entity is proportional to the phlogogenic process.
After fifteen days from the operation the granuloma is taken from the animal under anesthesia and it is weighed to determine its entity.
In the present case the cotton used as a base for the implantation of the granuloma consists of: […]

The next data set deals with UV-induced edema in skin. Nature of the data set: UV-induced edema (erythema) in rats' skin. The data set is classed as in vivo. Conditions: daily application, vs animals with no application. On the procedure: 6. Influence of the application of derivatized cotton fibres on UV-induced edema in rats' skin.
Adult rats are depilated on their backs and are then exposed to UV radiations until a consistent skin edema forms.
The exposition is carried out only on pre-established circular areas using suitable pierced masks.
Then normal cotton gauzes (controls) or gauzes obtained from fibre derivatized with a medicament are applied with a good adherence onto the inflamed areas. Simultaneously another group of animals is tested to check the effectiveness of the application of the same medicaments in form of 5% gel.
The regression of the erythema defined as the reduction of the entity and surface of the reddening area is controlled daily with respect to control animals with no application, and immediately afterwards the medicament is applied again in the various forms.
On the 5th day the average extension of the erythema surface is measured and its reduction in percentage with respect to the animals with no application is calculated.

Data set [3] concerns experimental sclerosis in femoral veins. Kind of data set: experimental sclerosis in rabbits' femoral veins. The data set is classed as in vivo. Conditions: rabbit femoral vein, carbon tetrachloride as sclerotizing agent, gauze bandage, after ten days. As for the experimental part:
4. Influence of the application of derivatized cotton fibres on the entity of experimental sclerosis in rabbits' femoral veins.
After a suitable depilation a rabbit's femoral vein is closed for a length of about 5 cm by means of suture stitches downstream and upstream.
Within the separated area 0.05 ml of carbon tetrachloride in 10% solution (Fluka 87031) is added as sclerotizing agent.
The area is suitably bandaged with normal cotton gauzes (control) or derivatized gauzes so that they perfectly adhere to the treated area.
After ten days the vein fragments undergoing stasis are taken and controlled with a microscope to check the parietal state and the consistency of the sclerotizing deposits.
It is thus possible to observe how the application in the area receiving layers of derivatized cotton gauzes with: […]

Data set [4] relates to subcutaneous lipid deposit. Nature of the data set: experimental subcutaneous lipid deposit in rats. The data set is classed as in vivo. Conditions: abdominal tissue, gauze applied from the eighth day, after thirty days. On the procedure: 7. Influence of the application of derivatized cotton fibres on experimental subcutaneous lipid deposit in rats.
The experiments were carried out on adult rats by injecting into their subcutaneous abdominal areas a lipid fraction rich in cholesterol (Sigma L 4646), and daily repeating the administrations until a stabilized subcutaneous lipid deposit is obtained; the fat mixture is injected in six adjacent sites in a volume of 0.2 ml/location for 7 days.
Then, from the eighth day on, cotton gauzes obtained from fibre derivatized with lipase (example II.F. above) are applied onto said areas in a perfectly adhering way.
After thirty days the animals are killed and the treated abdomen areas is taken. Aliquots of said area of about 2 g, precisely weighed, are homogenized in a Waring blender and the lipid content is extracted by adding aliquots of ethyl ether under strong stirring: three extractions with 20 ml of solvent each.
The ether fractions are mixed and concentrated in a rotary evaporator until dryness.
The concentration/g of extracted lipid tissue is determined by weighing said extracts.

Turning to cotton-CH2—NH-lys-NH—CH2-Ph-OH, the “% of released active principle” value in data set [1] turned out to be 1.2%. In addition, the “% reduction in the development of colonies” value (from here on “% reduction … of colonies”) with Escherichia coli is 85%; in the data set with Candida albicans it was 75%; with Staphylococcus aureus it was 85%.

On to “cotton-CH2—NH-lys-NH—CO-PABA-benzyl benzoate [III.B.2.1.2.]”, for which the “Decrease (%) of total living mite population” value (“Decrease (%)” below) with mite population was 59%.

Turning to “cotton-CH2—NH-polylys-(NH—CO-PABA-benzylbenzoate)n [III.B.2.2.2.]”, the “Decrease (%)” value with mite population came out at 100%.

In the case of cotton-CH═N-bacitracin, the “% reduction … of colonies” value with Escherichia coli was found to be 75%; in the data set on Candida albicans, 65%; with Staphylococcus aureus, 95%.

On to cotton-CH═N-gramicidin, for which the “% reduction … of colonies” value amounted to 80% with Escherichia coli, 65% with Candida albicans and 90% in the data set with Staphylococcus aureus.

Consider “cotton-CH═N-lys-NH—CO-PABA-benzylbenzoate [III.B.2.1.1.]”, for which, in the data set on mite population, the “Decrease (%)” value was 58%.

Regarding “cotton-CH═N-polylys-(NH—CO-PABA-benzylbenzoate)n [III.B.2.2.1.]”, in the data set on mite population, the “Decrease (%)” value came to 94%.

Turning to cotton-CH═N-procaine [Cotton/procaine], in [1], the “% of released active principle” value is 76.3%.

On to cotton-S-S-cys-PABA-hydrocortisone, for which the “% reduction in the weight of the granuloma” value (shortened to “% reduction in the weight”) in data set [2] came out at 55.0%. Further, the “% reduction of the erythema extension with respect to controls on the 5th day after the induction” value with UV-induced edema in skin turned out to be 60.0%.

As to “cotton-S-S-cys-polylys-(PABA-hydrocortisone)n”, in [2], the “% reduction in the weight” value stood at 90.0%. The “% reduction of the erythema extension with respect to controls on the 5th day after the induction” value with UV-induced edema in skin is 95%.

For cotton-S-S-cys-polylys-naproxen, in [2], the “% reduction in the weight” value is given as 64.0%.

With cotton-S—S-IgG [Cotton/IgG], the “% of released active principle” value in data set [1] came to 40.8%.

With cotton-S—S—CH2—CH(COOH)—NH—CO-naproxen, the “% reduction in the weight” value in data set [2] came to 30.0%.

As for cotton-S—S—CH2—CH(COOH)—N═CH-heparin, the tissue sclerotic state result in [3] is “reduce the tissue sclerotic state to a consistent extent”. For the same substance, the “% of released active principle” value in data set [1] was determined as 50.4%.

On to “cotton-S—S—CH2—CH(NH—CO-lipase)-CO—NH-lipase”, for which the “lower lipid content than the controls” value in data set [4] is 45%.
